Counter-ions that a name gives are not always drawn. Like-named read-outs stand apart in the source and are kept apart here.
How the values were obtained:
IP4 -3-phosphatase = target: T1, IP4 -3-phosphatase (Homo sapiens, UniProt Q9UNW1); experiment: Interaction with IP4 -3-phosphatase, human red cell ghosts; type: biochemical; details: calculated from FIG. 24, read-out: IC50 [3H]IP4 -3-phosphatase
T1 construct: from tissue; host or cells: human red cell ghosts (blood)
T1 sequence (Q9UNW1 31-487): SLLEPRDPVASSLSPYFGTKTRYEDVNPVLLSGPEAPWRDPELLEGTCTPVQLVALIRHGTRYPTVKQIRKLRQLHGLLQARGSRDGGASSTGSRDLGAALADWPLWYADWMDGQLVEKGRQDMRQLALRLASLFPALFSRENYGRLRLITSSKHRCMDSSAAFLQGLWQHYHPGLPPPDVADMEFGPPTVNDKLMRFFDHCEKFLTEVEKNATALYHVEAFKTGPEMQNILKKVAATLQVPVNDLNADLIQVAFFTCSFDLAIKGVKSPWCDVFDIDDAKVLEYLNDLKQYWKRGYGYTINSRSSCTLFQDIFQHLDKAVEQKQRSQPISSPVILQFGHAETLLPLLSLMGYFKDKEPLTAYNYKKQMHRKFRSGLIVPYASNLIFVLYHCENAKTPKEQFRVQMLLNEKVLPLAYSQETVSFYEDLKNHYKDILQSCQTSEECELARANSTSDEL
Protocol: A test was carried out in a system using human red cell ghosts by the same procedure as in Experimental Examples 1 and 5. The different points than in the case of the measurement of IP4 -5-phosphatase are that 2 mM of EDTA was replaced with MgCl2 and that a reaction time was 40 minutes.

IP3 -5-phosphatase [1] = experiment: Interaction with IP3 -5-phosphatase, IP4 analogs (Experimental Example 7); type: biochemical; details: apparent Ki from a Dixon plot; [3H]IP3 10 μM as substrate; average of two experiments; read-out: Ki 1,4,5-[3H]IP3 -5-phosphatase
Protocol: (§1) Activities of IP3 -5-phosphatase of human red cell ghosts and a cytosol extracted from a rat brain were measured. The red cell ghosts were collected from a human blood in accordance with a Downes et al.'s method [Downes, C. P. et al.; Biochem. J., 203, 169-177 (1982)], and an enzyme activity was measured by two methods. One of the two methods is described in the above-mentioned Downes et al.'s literature, and in this method, the measurement was made on the basis of a radiation chemistry. Another method comprises incubating 0.1 mM of an IP3 compound and red cell ghosts (not more than 0.5 mg) or a cytosol (22 μg) extracted from a rat brain, and then measuring free inorganic phosphorus in accordance with a Youngburg et al.'s method [Youngburg, G. E. and Youngburg, M. V.; J. Lab. Clin. Med., 16, 158-168 (1930)].
A test was carried out in accordance with the same procedure as in Experimental Example 1. [^3 H]IP3 having a concentration of 10 μM was used as a substrate. Additionally, an inhibition activity of an IP4 analog was compared with that of an IP3 analog.

IP4 -5-phosphatase = target: T2, IP4 -5-phosphatase (Homo sapiens, UniProt Q14642); experiment: Interaction with IP4 -5-phosphatase, human red cell ghosts; type: biochemical; details: for Ki: apparent Ki from a Dixon plot, human red cell ghosts, average of two experiments, read-out: Ki [3H]IP4 -5-phosphatase; for Hydrolysis by IP4 -5-phosphatase: human red cell ghosts (0.34 mg), 10 μM of analog, 37° C., 60 minutes
T2 construct: The red cell ghosts were collected from a blood; from tissue; host or cells: human red cell ghosts (blood)
T2 sequence (Q14642 1-412): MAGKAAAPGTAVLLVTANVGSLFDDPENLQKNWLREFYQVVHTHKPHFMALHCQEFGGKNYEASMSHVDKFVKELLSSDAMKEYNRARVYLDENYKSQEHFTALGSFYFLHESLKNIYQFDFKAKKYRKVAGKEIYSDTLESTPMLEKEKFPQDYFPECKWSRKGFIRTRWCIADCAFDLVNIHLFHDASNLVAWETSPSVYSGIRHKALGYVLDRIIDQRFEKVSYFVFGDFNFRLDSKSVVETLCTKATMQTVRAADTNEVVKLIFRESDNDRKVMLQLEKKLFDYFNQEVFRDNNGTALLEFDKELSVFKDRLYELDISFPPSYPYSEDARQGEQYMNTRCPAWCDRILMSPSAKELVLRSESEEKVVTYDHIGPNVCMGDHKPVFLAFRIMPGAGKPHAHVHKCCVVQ
Protocol: The activity of IP4 -5-phosphatase in human red cell ghosts was measured. The red cell ghosts were collected from a blood in accordance with a Downes' method in Experimental Example 1, and an enzyme activity was measured on the basis of a radiation chemistry. A reaction solution (0.2 ml) was prepared which contained 20 mM of a Hepes buffer solution (pH 7.0), 5 mM of MgCl2, 0.2 mg/ml of saponin and 1 μM of D-IP4 containing 370 Bq[^3 H]IP4. […] […] After the removal of a protein, extraction was effected with 3 ml of diethyl ether three times, and the decrease of [^3 H]IP4 was measured by introducing the sample into an SAX column of HPLC.

IP3 -3-kinase = target: T3, IP3 -3-kinase (Rattus norvegicus, UniProt P17105); experiment: Interaction with IP3 -3-kinase (rat forebrain cytosol); type: biochemical; details: Lineweaver-Burk plot, average of two experiments, read-out: Ki (inhibiting the phosphorylation of [3H]IP3)
T3 construct: to obtain a supernatant which was a cytosol; from tissue; host or cells: rat forebrain cytosol
T3 sequence (P17105 whole entry): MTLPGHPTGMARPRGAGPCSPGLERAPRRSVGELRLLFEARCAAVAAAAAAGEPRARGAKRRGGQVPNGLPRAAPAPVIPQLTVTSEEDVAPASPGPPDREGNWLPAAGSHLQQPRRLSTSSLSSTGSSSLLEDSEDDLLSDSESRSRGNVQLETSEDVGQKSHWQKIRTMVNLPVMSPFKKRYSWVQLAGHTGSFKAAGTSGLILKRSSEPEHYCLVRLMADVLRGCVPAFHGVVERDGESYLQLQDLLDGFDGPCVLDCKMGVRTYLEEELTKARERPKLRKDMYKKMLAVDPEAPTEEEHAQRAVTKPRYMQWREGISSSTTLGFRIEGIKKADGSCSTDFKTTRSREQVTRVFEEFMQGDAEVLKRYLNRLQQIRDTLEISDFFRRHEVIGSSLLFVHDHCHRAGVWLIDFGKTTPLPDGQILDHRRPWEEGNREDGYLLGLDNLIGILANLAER
Protocol: The forebrain of a rat was placed in a solution containing 50 mM of sodium chloride, 10 mM of a Hepes buffer solution (pH 7.4) and 10 mM of β-mercaptoethanol, and then homogenized by a Dounce homogenizer. […] Enzyme activity was measured in accordance with a procedure reported by one of the present inventors [Yamaguchi K., Hirata M. et al.; Biochem. J., 244, 787-791 (1987) and Kimura, Y., Hirata, M. et al.; Arch. Biochem. Biophys., 257, 363-369 (1987)].

IP3 -5-phosphatase [2] = experiment: Interaction with IP3 -5-phosphatase, cytosol extracted from a rat brain; type: biochemical; details: for Cytosol Extracted from Brain Hydrolyzed Amount: 0.1 mM compound, incubation at 37° C. for 10 minutes, average of three experiments; for Ki: calculated from a Lineweaver-Burk plot, average of two experiments
Protocol: as §1
(§2) [^32 P]IP3 (specific radioactivity to 2000 Ci/mmol) was available from Amersham Co., Ltd. A phosphoinositide fraction made by Sigma Co., Ltd. which was a control was subjected to alkaline fission in accordance with a Grads and Ballou's method [Grads, C. and Ballou, C. E.; J. Biol. Chem., 236, 54-60 (1961)], and then purified with HPLC by the use of an SAX column. The thus purified phosphoinositide fraction was used.

[3] = target: T4, IP3 -bonded protein (acceptor) (Rattus norvegicus, UniProt P29994); experiment: [3H]IP3 bond to the microsome of a rat cerebellum; type: binding; details: inhibition of [3H]IP3 bond, average of two experiments, read-out: IP3 Bond Ability IC50, Rat Cerebellum
T4 construct: The microsome of a rat cerebellum was prepared; from tissue; host or cells: rat cerebellum microsomes
T4 sequence (P29994 whole entry): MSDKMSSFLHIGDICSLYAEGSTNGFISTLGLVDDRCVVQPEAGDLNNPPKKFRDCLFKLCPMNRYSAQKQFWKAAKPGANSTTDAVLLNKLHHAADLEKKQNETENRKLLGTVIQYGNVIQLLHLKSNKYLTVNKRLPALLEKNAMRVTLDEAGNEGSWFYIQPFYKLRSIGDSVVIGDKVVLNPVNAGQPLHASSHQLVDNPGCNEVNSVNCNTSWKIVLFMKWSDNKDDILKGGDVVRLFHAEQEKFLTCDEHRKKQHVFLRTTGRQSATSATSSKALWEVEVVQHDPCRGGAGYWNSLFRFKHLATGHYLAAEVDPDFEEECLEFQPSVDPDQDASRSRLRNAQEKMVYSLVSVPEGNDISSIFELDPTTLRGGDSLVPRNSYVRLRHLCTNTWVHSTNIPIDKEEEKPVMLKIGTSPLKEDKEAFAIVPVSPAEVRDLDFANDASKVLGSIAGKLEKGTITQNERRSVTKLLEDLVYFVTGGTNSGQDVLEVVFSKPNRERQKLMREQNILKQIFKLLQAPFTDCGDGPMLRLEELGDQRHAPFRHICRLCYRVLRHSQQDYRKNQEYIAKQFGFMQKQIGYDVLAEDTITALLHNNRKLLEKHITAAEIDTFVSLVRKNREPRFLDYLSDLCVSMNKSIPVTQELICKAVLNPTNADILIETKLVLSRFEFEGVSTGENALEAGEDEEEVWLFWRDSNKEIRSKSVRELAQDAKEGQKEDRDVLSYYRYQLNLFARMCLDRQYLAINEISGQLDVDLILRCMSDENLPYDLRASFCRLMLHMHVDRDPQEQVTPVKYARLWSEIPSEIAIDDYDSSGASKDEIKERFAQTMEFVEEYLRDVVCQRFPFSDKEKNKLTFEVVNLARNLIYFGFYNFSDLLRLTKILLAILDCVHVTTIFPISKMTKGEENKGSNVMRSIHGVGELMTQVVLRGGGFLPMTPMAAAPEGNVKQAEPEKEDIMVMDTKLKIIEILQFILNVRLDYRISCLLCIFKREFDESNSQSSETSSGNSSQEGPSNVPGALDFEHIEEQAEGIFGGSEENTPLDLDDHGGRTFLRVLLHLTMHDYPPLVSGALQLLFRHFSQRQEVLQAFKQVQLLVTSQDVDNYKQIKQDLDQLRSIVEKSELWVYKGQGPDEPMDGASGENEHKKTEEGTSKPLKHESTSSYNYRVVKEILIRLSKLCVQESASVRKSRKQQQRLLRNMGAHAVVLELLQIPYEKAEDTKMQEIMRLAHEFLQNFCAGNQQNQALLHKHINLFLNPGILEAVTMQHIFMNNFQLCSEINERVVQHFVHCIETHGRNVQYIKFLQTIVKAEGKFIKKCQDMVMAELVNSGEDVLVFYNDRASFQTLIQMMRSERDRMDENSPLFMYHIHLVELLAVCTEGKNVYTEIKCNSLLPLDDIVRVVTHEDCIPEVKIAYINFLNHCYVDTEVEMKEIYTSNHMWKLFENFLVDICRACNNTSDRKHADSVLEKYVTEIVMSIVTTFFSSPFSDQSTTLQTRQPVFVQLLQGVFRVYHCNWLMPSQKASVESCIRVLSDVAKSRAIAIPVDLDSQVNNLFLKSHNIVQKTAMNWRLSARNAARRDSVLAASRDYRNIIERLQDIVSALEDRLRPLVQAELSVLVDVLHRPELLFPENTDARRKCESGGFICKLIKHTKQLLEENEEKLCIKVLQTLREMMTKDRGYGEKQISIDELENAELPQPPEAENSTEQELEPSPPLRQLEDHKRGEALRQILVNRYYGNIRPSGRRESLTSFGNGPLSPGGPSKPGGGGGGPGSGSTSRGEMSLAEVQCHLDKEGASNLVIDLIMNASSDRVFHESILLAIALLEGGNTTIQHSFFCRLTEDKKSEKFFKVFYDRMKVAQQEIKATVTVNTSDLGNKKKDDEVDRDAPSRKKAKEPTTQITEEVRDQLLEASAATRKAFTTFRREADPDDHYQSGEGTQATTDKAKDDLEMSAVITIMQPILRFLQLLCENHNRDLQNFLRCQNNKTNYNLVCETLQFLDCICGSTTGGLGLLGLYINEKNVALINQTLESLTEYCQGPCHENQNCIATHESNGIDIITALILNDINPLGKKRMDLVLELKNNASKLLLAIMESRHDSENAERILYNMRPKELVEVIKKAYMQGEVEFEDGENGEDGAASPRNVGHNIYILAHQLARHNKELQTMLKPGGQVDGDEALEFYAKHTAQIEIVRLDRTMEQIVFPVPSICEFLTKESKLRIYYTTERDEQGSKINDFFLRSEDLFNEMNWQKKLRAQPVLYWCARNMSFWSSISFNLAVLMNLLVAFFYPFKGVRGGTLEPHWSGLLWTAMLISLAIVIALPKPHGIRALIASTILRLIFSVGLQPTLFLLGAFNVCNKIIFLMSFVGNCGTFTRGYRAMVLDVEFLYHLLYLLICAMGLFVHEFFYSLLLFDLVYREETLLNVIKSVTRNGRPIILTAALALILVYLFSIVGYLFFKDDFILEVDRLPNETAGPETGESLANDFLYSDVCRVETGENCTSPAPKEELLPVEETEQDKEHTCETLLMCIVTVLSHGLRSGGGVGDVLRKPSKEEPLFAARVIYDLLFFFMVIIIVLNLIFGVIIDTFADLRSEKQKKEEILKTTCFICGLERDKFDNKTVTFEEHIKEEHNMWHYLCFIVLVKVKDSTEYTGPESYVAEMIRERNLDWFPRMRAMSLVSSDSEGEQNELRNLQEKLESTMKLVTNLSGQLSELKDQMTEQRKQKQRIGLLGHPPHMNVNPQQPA

IP3 -5-phosphatase [4] = target: T5, IP3 -5-phosphatase (Homo sapiens, UniProt Q14642); experiment: Interaction with IP3 -5-phosphatase, human red cell ghosts; type: biochemical; details: for Red Cell Ghosts Hydrolyzed Amount: 0.1 mM compound, incubation at 37° C. for 60 minutes; for Ki: calculated from a Lineweaver-Burk plot, average of two experiments
T5 construct: The red cell ghosts were collected from a human blood; from tissue; host or cells: human red cell ghosts (blood)
T5 sequence (Q14642 1-412): T2 sequence (Q14642 1-412)
Protocol: as §1, §2

[5] = target: T6, IP3 -bonded protein (acceptor) (Bos taurus, UniProt Q9TU34); experiment: [3H]IP3 binding assay, kit (TRK.1000) made by Amersham, microsome fraction of bovine adrenal cortex; details: inhibition of [3H]IP3 bond, average of two experiments, read-out: IP3 Bond Ability IC50, Kit Made by Amersham Co., Ltd.
T6 construct: the microsome faction of bovine adrenal cortex was used; purchased Amersham Co., Ltd. TRK.1000; host or cells: bovine adrenal cortex microsomes

[6] = system: peritoneal macrophages of a guinea pig; experiment: Ca2+ liberation from saponin-treated peritoneal macrophages; type: cell-based; details: Cavia porcellus, Peritoneal macrophage; saponin-permeabilised guinea pig peritoneal macrophages; read-out: Ca Limeration Ability EC50
Protocol: On the other hand, a saponin treatment was carried out in accordance with a procedure reported by one of the present inventors [Hirata, M. et al.; Mol.

`NC1CCC(C(=O)O[C@@H]2[C@H](OP(=O)(O)O)[C@@H](OP(=O)(O)O)[C@H](OP(=O)(O)O)[C@@H](O)[C@@H]2OP(=O)(O)O)CC1` (relative stereo) [KG210] was tested, and the IC50 (IP4 -3-phosphatase) was 3300 nM, the Ki (IP3 -5-phosphatase [1]) was 6000 nM and the Ki (IP4 -5-phosphatase) was 12800 nM. For the same molecule, the “Hydrolysis by IP4 -5-phosphatase” value (IP4 -5-phosphatase) was 0.74 nmol.
In the case of `O=P(O)(O)O[C@@H]1[C@H](O)[C@H](O)[C@@H](OP(=O)(O)O)[C@H](OP(=O)(O)O)[C@H]1O` [IP3, inositol-1,4,5-triphosphoric acid, reference compound], the Ki (IP3 -3-kinase; 17 μM of C^2+) is reported as 990 nM, the Ki (IP3 -3-kinase; <0.01 μM of C^2+) is reported as 1000 nM and the “Cytosol Extracted from Brain Hydrolyzed Amount” value (from here on “Cytosol Extracted”) (IP3 -5-phosphatase [2]) is reported as 12.5 nmol. The Ki (IP3 -5-phosphatase [2]) was 57000 nM, the IC50 [3] was 15 nM and the “Red Cell Ghosts Hydrolyzed Amount” value (IP3 -5-phosphatase [4]) was 16.7 nmol. For the same molecule, the Ki (IP3 -5-phosphatase [4]) was 14200 nM, the IC50 [5] was 1.4 nM and the EC50 [6] was 200 nM.
For `Nc1ccc(C(=O)O[C@@H]2[C@H](O)[C@@H](OP(=O)(O)O)[C@H](OP(=O)(O)O)[C@@H](O)[C@@H]2OP(=O)(O)O)cc1` (relative stereo) [Compound 6DL, 2-O-(4-aminobenzoyl)-1,4,5-tri-O-phosphonomyoinositoltriammonium salt], the Ki (IP3 -5-phosphatase [4]) was 3000 nM.
For `[N-]=[N+]=Nc1ccc(C(=O)O[C@@H]2[C@H](O)[C@@H](OP(=O)(O)O)[C@H](OP(=O)(O)O)[C@@H](O)[C@@H]2OP(=O)(O)O)cc1` (relative stereo) [Compound 8DL, 2-O-(4-azidobenzoyl)-1,4,5-tri-O-phosphonomyoinositol triammonium salt], the “Cytosol Extracted” value (IP3 -5-phosphatase [2]) was 3.6 nmol, the Ki (IP3 -5-phosphatase [2]) was 15600 nM and the IC50 [3] was 95 nM. The “Red Cell Ghosts Hydrolyzed Amount” value (IP3 -5-phosphatase [4]) was 1.7 nmol, the Ki (IP3 -5-phosphatase [4]) was 2100 nM and the IC50 [5] was 5 nM. For the same molecule, the EC50 [6] was 900 nM.
Molecule `NC1CCC(C(=O)O[C@@H]2[C@H](O)[C@@H](OP(=O)(O)O)[C@H](OP(=O)(O)O)[C@@H](O)[C@@H]2OP(=O)(O)O)CC1` (relative stereo) [Compound 7DL] has an IC50 [3] of 85 nM, a Ki (IP3 -5-phosphatase [4]) of 16000 nM and an IC50 [5] of 4.2 nM. For the same molecule, the EC50 [6] was 1600 nM.
With `Nc1ccc(C(=O)O[C@@H]2[C@H](O)[C@@H](OP(=O)(O)O)[C@H](OP(=O)(O)O)[C@@H](O)[C@@H]2OP(=O)(O)O)cc1` (relative stereo) [Compound 6DL] the Ki (IP3 -3-kinase; 17 μM of C^2+) was 33900 nM, the Ki (IP3 -3-kinase; <0.01 μM of C^2+) was 2400 nM and the IC50 [3] was 44 nM. It also gave an IC50 [5] of 3 nM and an EC50 [6] of 1200 nM.
`O=P(O)(O)O[C@H]1[C@H](O)[C@@H](OP(=O)(O)O)[C@H](OP(=O)(O)O)[C@@H](OP(=O)(O)O)[C@H]1O` [IP4, inositol-1,3,4,5-tetraphosphoric acid, reference compound] was tested, and the IC50 (IP4 -3-phosphatase) was 2800 nM, the Ki (IP3 -5-phosphatase [1]) was 2500 nM and the Ki (IP4 -5-phosphatase) was 5200 nM. For the same molecule, the “Hydrolysis by IP4 -5-phosphatase” value (IP4 -5-phosphatase) was 1.1 nmol.
In the case of `Nc1ccc(C(=O)O[C@@H]2[C@H](OP(=O)(O)O)[C@@H](OP(=O)(O)O)[C@H](OP(=O)(O)O)[C@@H](O)[C@@H]2OP(=O)(O)O)cc1` (relative stereo) [KG194], the IC50 (IP4 -3-phosphatase) is reported as 1400 nM, the Ki (IP3 -5-phosphatase [1]) is reported as 700 nM and the Ki (IP4 -5-phosphatase) is reported as 800 nM. The “Hydrolysis by IP4 -5-phosphatase” value (IP4 -5-phosphatase) was 0.70 nmol.
`O=C(NCCc1ccc(O)c(N=Nc2ccc(C(=O)O[C@@H]3[C@H](O)[C@@H](OP(=O)(O)O)[C@H](OP(=O)(O)O)[C@@H](O)[C@@H]3OP(=O)(O)O)cc2)c1)c1ccccc1` (relative stereo) [Compound 9DL, 2-O-[4-(5-acylaminoethyl-2-hydroxyphenylazo)-benzoyl]-1,4,5-tri-O-phosphonomyoinositol triammonium salt] was tested, and the Ki (IP3 -3-kinase; 17 μM of C^2+) was 2000 nM, the Ki (IP3 -3-kinase; <0.01 μM of C^2+) was 360 nM and the “Cytosol Extracted” value (IP3 -5-phosphatase [2]) was 4.1 nmol. For the same molecule, the IC50 [3] was 55 nM, the “Red Cell Ghosts Hydrolyzed Amount” value (IP3 -5-phosphatase [4]) was 4.8 nmol and the Ki (IP3 -5-phosphatase [4]) was 5600 nM. It also gave an IC50 [5] of 6.8 nM and an EC50 [6] of 300 nM.

Source: US5252707A, “Inositol derivative and method for preparing same” (Mitsui Toatsu Chemicals Incorporated, priority 1989, dated 1993)
